A melting point compilation (Tetko et al.; mined from patent text by program, amines drawn as free bases though some values may be those of a salt)

SMILES	melting point [°C]
O=C(CCc1ccc(F)cc1)c1ccc(C(F)(F)F)cc1	66 to 67
COC(=O)c1nc(CCN(C)C)n2c1CN=C(c1ccccc1Cl)c1cc(Cl)ccc1-2	203 to 204
OCC1CC(n2c(N3CCC3)nc3cc(Cl)c(Cl)cc32)C(O)C1O (stereo unspecified)	221 to 222
CC(C)C(=O)Nc1cn(-c2cncc(F)c2)nc1CCl	172 to 177
COc1ccc2c(CBr)c(F)ccc2c1C(F)(F)F	97 to 100
CC(C(=O)O)c1ccc(CC2CCCCC2O)c(Cl)c1 (stereo unspecified)	123 to 127
CCc1ccc(CCC(=O)O)c(C(=O)O)c1	174
O=C1CCC(=O)N1CCCCSc1ccncc1	80 to 81
CCC1(CC)C=C(N2CCSC2=NC#N)c2cc(C#N)ccc2O1	251 to 252
C(=C\c1cc(/C=C/c2ccc3cc[nH]c3c2)n[nH]1)/c1cccc(OCc2ccccn2)c1	193 to 195
COc1cc(C=CC(=O)c2c(OCC=C(C)C)ccc3c(=O)c4ccccc4oc23)cc(OC)c1OC	153 to 155
C#Cc1cc(C)nc(C(=O)Nc2ccn(C)n2)c1	226
CCCc1cc2c(cc1O)C(C)(C)CCC2(C)C	96 to 97
Nc1cncc(C(O)c2ccccc2)c1 (stereo unspecified)	92 to 94
C[C@H](CO)Nc1ccc([N+](=O)[O-])cc1F	128 to 130
N#Cc1ccc(-c2ccccc2OCC2CC2)[nH]c1=O	250 to 252
Cc1ccc(S(=O)(=O)O[C@H](C)C(=O)N2C(=O)N(C)C[C@H]2C(=O)OC(C)(C)C)cc1	78 to 80
CCOC(=O)C1Cc2ccc(NC(=O)OCc3ccccc3)cc2NC1=O (stereo unspecified)	187 to 189
O=C(c1ccccc1)c1ccccc1N1C=NC(CCl)(C(=O)O)N1 (stereo unspecified)	90 to 93
CCn1ncc2c(NCC3CCC(CO)CC3)c3ccccc3nc21 (stereo unspecified)	188 to 190
c1cc2ccc3nnsc3c2cn1	150 to 153
COc1cc(C(=O)Nc2cc(F)ccc2C(=O)O)cc(OC)c1OC	232 to 233
O=C1c2ccccc2C(=O)N1Cc1noc(-c2ncn3c2[C@@H]2CCN2C(=O)c2ccccc2-3)n1	290 to 292
Cc1cc(CC2(Cc3ccncc3)c3cccnc3-c3ncccc32)cc(C)n1	> 240
c1ccc2c(c1)CCc1c(CN3CCN(c4cc5ccccc5cn4)CC3)n[nH]c1-2	228 to 230
Nc1c(Cl)cc(Nc2ncnc3cnc(N[C@H]4CC[C@H](C(=O)N5CCOCC5)CC4)nc23)cc1Cl	204 to 207
Cc1c(Cl)ccc2c(=O)n(CCCN3CC=C(c4ccc(Cl)cc4)CC3)c(=O)[nH]c12	208 to 210
CCOCC(O)(COCC)C(Cc1ccc2ccccc2c1)[N+](=O)[O-] (stereo unspecified)	87

SMILES	melting point [°C]
CNC(=O)C(NC(=O)c1cn(C)nc1C(F)(F)F)C(COC(C)=O)c1ccccc1 (stereo unspecified)	175
COc1ccc(NC(=O)c2ccc(Br)cc2)cc1N1CCN(C(=O)OC(C)(C)C)CC1	156 to 158
N#CCCCC1Sc2ccccc2NC1=O (stereo unspecified)	107 to 108
CC(C)C(=O)CCC(C)C1CCC2C3CC(O)C4CC(O)CCC4(C)C3CCC12C (stereo unspecified)	180 to 181
CCCCCCCC(=O)N1CCc2nnc(NN)cc2C1	164 to 166
O=CN1CCCN(C2=Nc3cc(Cl)ccc3Nc3ccccc32)CC1	152 to 155
O=C(c1cccs1)c1cnn2c(-c3ccc(Cl)nc3)ccnc12	145 to 148
Cc1cc(-c2cc(=O)n(C)[nH]2)c(F)cc1Cl	155 to 156
NS(=O)(=O)c1cc(S(=O)(=O)N(N2CCCCC2)N2CCCCC2)c(Cl)cc1Cl	170
O=C(NCCN1CCC(Nc2nc3ccccc3n2Cc2ccc(F)cc2)CC1)c1ccc(F)cc1	194
CCn1ccc2c(c1=O)CN=C(N1CCN(Cc3ccccc3)CC1)N2	200 to 203
CC(C)C(=O)NCCOc1ccc(N)cc1	99 to 100
CNC12CC(O)CCC1CCc1ccccc12 (stereo unspecified)	141 to 143
COc1cc2c(cc1C)C1(CO2)C(=O)N(Cc2ccccn2)c2ccccc21 (stereo unspecified)	142 to 144
CC(=O)Nc1nnc(S(=O)(=O)Cc2ccccc2)o1	245 to 248
Cn1ccc(CON2C(=O)c3ccccc3C2=O)n1	122 to 124
CCOCc1nc2c(N)nc3ccccc3c2n1CCNC(=O)CCCCC1SCC2NC(=O)NC21 (stereo unspecified)	171 to 175
Cc1sc(C(=O)O)c2c1-c1c(cnn1CC(F)(F)F)CC2	250 to 251
CCCn1c(=O)n(C)c(=O)c2nc(-c3ccc(/C=C/C(=O)O)cc3)[nH]c21	> 300
Cn1nc(-c2ccc(C(=O)O)cc2)nc1-c1ccccc1	243 to 244
Cc1cc(I)ccc1O	64 to 65
COc1ccccc1C(=O)c1cccc2c1ccn2C	74
CC(=O)N1CC(CCN2CC=C(c3c[nH]c4cc(Cl)ccc34)CC2)c2cc(F)ccc21 (stereo unspecified)	183 to 185
O=C1c2cc3ccc4c(c3c(-c3ccncc3)c2C[NH+]1[O-])OCO4 (stereo unspecified)	270 to 274
COc1ccc(N2CCN(c3c(C)c(C)c4c(c3C)C(c3ccc(C)nc3)C(C)(C)O4)CC2)cc1 (stereo unspecified)	131 to 133
O=c1oc(-c2ccccc2)cc(O)c1SCCc1ccccc1	121 to 124
COc1ccc(C2=C(c3ccccc3)CCCc3cc(OCc4ccccc4)ccc32)cc1	163 to 164

Continued, values first:

melting point [°C]	SMILES
124 to 125	CC(=O)NC1(c2ccc(CN3CCN(c4ccc(F)cc4F)CC3)cc2)CC1
280	CC1(N)CN(c2c(F)cc3c(=O)c(C(=O)O)cn(-c4nc(N)c(F)cc4F)c3c2Cl)C1
110 to 112	C=CCOc1ccc2cn[nH]c2c1
169 to 170	Cc1cc2c(cc1Oc1ccc(C(=O)NNc3ccc4c(C)nn(C)c4n3)o1)C(C)(C)CC(C)C2(C)C (stereo unspecified)
140 to 141	CCN(CC)CCOC(=O)C(C)(c1ccc(O)cc1)c1ccc(O)cc1
60	O=C(c1ccc(F)cc1)c1cc(F)ccc1OCCCCl
154	N#Cc1cc([N+](=O)[O-])c(O)c(O)c1F
146 to 148	CCCCCn1ncc2c(N)c3c(nc21)CN(Cc1cccc(C(F)(F)F)c1)C3=O
144	CCCCc1c[nH]c2cccc(SC)c2c1=O
69 to 73	CCN1CCN(CC)c2cc(Nc3nc(Cl)ncc3Cl)ccc2C1
77 to 80	CCOC(=O)c1c(OCC)nsc1NC(=O)N(CC)CC
192 to 193	Cc1sc(N2C(=O)OCC2(C)C)nc1-c1ccc(C#N)cc1
107	O=S(=O)(c1ccc(CO)cc1)N1CCCC1c1ccc(F)cc1 (racemic)
246 to 249	O=C(O)C1=C(C(F)(F)F)COc2ccc3ccccc3c21
180 to 181	COC(=O)c1cn2c(n1)COc1cc(C)ccc1-2
107 to 112	COCCN1CCc2cc(Nc3ncc(Cl)c(Nc4ccccc4NS(C)(=O)=O)n3)c(OC)cc2CC1
109 to 110	O=C(Cl)c1c(-c2ccccc2)nn2c1-c1ccccc1CC2
148 to 150	CCOCc1nc2c(N)nc(C)c(C)c2n1CCCNC(=O)OCC
> 330	O=c1c2c[nH]c3c(c-2nn1-c1ccc(Cl)cc1)CSC3
140 to 142	NC(=S)Nc1ccccc1-c1ccc(F)cc1
133 to 134	COc1cc(-n2cnc(CO)c2)cc(C(F)(F)F)c1
98.5 to 102	CC(C)(COCc1cccc(Oc2ccccc2)c1)c1ccccc1C(=O)O
263 to 265	CC1COc2c(C3CC3)c(F)cc3c(=O)c(C(=O)O)cn1c23 (stereo unspecified)

melting point [°C]	SMILES
128 to 133	Oc1ccc(P(c2ccc(O)cc2)c2ccc(O)cc2)cc1
98 to 99	O=[N+]([O-])c1ccc(SSc2ncccn2)c(C(Cl)(Cl)Cl)c1
157 to 159	O=C(O)C(Cl)(Cl)CCCCCCCCCCc1ccccc1
195 to 197	CC(C)OCc1cc(O)cc2cc(-c3ccc(O)cc3)oc12
100 to 101	CS(=O)(=O)c1ccc(-c2cnn(-c3ccc(F)c(F)c3)c(=O)c2OCCC2CCCC2)cc1
216	COC(=O)C1=CC(C(=O)c2ccc(OCc3ccccc3)c(C)c2O)=CN2CCc3c([nH]c4ccccc34)C12C(=O)OC (stereo unspecified)
151 to 152	COCC1CCCN(/C(C)=C(/C#N)C(N)=S)C1 (stereo unspecified)
150 to 152	CC(=O)c1ccc(NCCCN2CCC(c3noc4cc(F)ccc34)CC2)c(O)c1
157 to 158	CNC(=O)N(O)CCNC(=O)c1cccc(Oc2ccc(Cl)cc2)c1
264 to 265	CN(C)c1ccc(-c2nc3c(N[C@H]4[C@@H](C(N)=O)[C@@H]5C=C[C@H]4C5)c(Br)cnc3[nH]2)cc1
134 to 136	CC(C)(C)OC(=O)[C@H](CCC(=O)N1CCC2(CCN(Cc3ccccc3)CC2)CC1)NS(=O)(=O)c1ccccc1
133 to 135	CCCCOC(=O)c1ccc(NCc2cc(Br)ccc2OCc2ccccc2)nn1
90 to 92	COc1ccc(-n2nc(-c3ccc(OC)c(CCC(=O)N(C)O)c3OC)cc2-c2ccc(Cl)cc2)cc1
237 to 239	CN1CC[C@@H](c2c(O)cc(O)c3c(=O)cc(-c4ccc(C#N)cc4Cl)oc23)[C@@H]1CO
252	CN(C1CCS(=O)(=O)CC1)S(=O)(=O)c1ccc(Nc2ccnc(Nc3ccc(F)cc3)n2)cc1
148 to 151	O=C(O)CCCNCCC(=O)O
173 to 174	COc1ccc(-c2nc(S(=O)(=O)CC(F)(F)F)[nH]c2-c2ccc(OC)cc2)cc1
98	O=C1c2ccccc2C(=O)N1OCCCN1CCOCC1
221 to 222	Cn1c(=O)nc(-c2ccccc2F)c2c3c(sc21)CCCC3
165 to 166	Cn1cc(CNC(=O)c2ccnc(N3CCN(Cc4ccc(F)cc4)C3=O)c2)cn1
85 to 86	CCCc1c(SCCCOc2ccc(C(C)O)c(OCCCC(=O)O)c2CCC)ccc(C(C)=O)c1O (stereo unspecified)
96 to 98	COC(=O)C(=O)c1ccc(OCCOc2ccc(C(F)(F)F)cc2)cc1
80.5 to 83	CC(C)c1cc(S(=O)(=O)Cl)c(C(C)C)cc1Br
